# Measurements taken from patent US20220193085A1, “METHODS OF THROMBOPROPHYLAXIS” (JANSSEN PHARMACEUTICALS, INC., priority 2020, published 2022).
# Legend:
# [1] = UNIVERSE primary efficacy outcome: any thrombotic event (CIAC adjudicated); type: in vivo, pediatric patients; conditions: Part B rivaroxaban N=64, aspirin N=34, up to end of treatment, full analysis set
# Description: This study was a prospective, open-label, active-controlled, multicenter study designed to evaluate the PK and PK/PD profiles, safety, and efficacy of rivaroxaban for thromboprophylaxis in pediatric patients 2 to 8 years of age with single ventricle physiology who have completed the Fontan procedure within 4 months prior to enrollment. The trial was approved by the institutional review board of each participating institution, as well as the appropriate national ethics committee. Written informed consent for trial participation was obtained from the parent or guardian of each patient. An Independent Data Monitoring Committee (IDMC) ensured patients' safety throughout the trial. A Central Independent Adjudication Committee (CIAC) reviewed all efficacy and safety events.
# Part B was the randomized, open-label, active-controlled part of the study that evaluated the safety and efficacy of twice daily administration of rivaroxaban compared to ASA (usual standard of care) for thromboprophylaxis for 12 months. Patients randomized to rivaroxaban also had PK and PD assessments.
# Primary efficacy outcome: Any thrombotic event, venous or arterial, symptomatic or asymptomatic defined as: • The appearance of a new thrombus within the cardiovascular system on either routine surveillance or clinically indicated imaging, or • The occurrence of a clinical event known to be strongly associated with thrombus (e.g., stroke, pulmonary embolism).
# All efficacy outcomes were adjudicated by the CIAC, blinded to assigned treatment.
# [2] = UNIVERSE adverse events, serious adverse events and treatment discontinuation; type: in vivo, pediatric patients; conditions: Part B rivaroxaban N=64, aspirin N=34
# Description: Other safety outcomes: Any adverse events and serious adverse events (SAES).
# [3] = human, in vivo
# Description: The methods and products of the invention concern dosages that are clinically proven safe and/or effective. Adverse events that impact whether the inventive dose, dosing regimen, treatment or method with rivaroxaban of the present invention are safe are adverse bleeding events that include, for example, major bleeding. “Major bleeding” as used herein is defined in accordance with ISTH criteria as clinically overt bleeding associated with a decrease in hemoglobin of […], a transfusion of the equivalent of […] of packed red blood cells or whole blood, or bleeding at a critical site, or with fatal outcome. Other adverse events include clinically relevant non-major bleeding and trivial (minimal) bleeding.
# The primary safety outcome was ISTH defined major bleeding. Major bleeding was defined as overt bleeding and: […]
# 1) Associated with a fall in hemoglobin of 2 g/dL or more; or 2) Leading to a transfusion of the equivalent of 2 or more units of packed red blood cells or whole blood in adults; or 3) Occurring in a critical site: intracranial, intraspinal, intraocular, pericardial, intraarticular, intramuscular with compartment syndrome, retroperitoneal; or 4) Contributing to death.
# The secondary safety outcomes were: Clinically relevant non-major bleeding and trivial (minimal) bleeding events.
# [4] = treatment-emergent, safety set, listed as ASA
# [5] = up to end of treatment, full analysis set
structure (smiles),measurement,setting,value
"CC(=O)Oc1ccccc1C(=O)O [Aspirin, acetylsalicylic acid]","All-cause mortality, No. of subjects with event",[1],0
same,"Any thrombotic event (primary efficacy outcome), % of subjects",[1],(8.8%)
same,"Arterial/intracardiac thrombosis, subjects n (%)",[1],0
same,"Ischemic stroke, % of subjects",[1],(2.9%)
same,"Other thrombosis, subjects n (%)",[1],0
same,"Pulmonary embolism, subjects n (%)",[1],0
same,"Venous thromboembolism, % of subjects",[1],(5.9%)
same,"Venous thromboembolism, No. of subjects with event",[1],2/34
same,"Venous thrombosis, % of subjects",[1],(5.9%)
same,"Any thrombotic event (primary efficacy outcome), % of subjects",[1]; listed as ASA,9%
same,"AEs related to Study Agent, % of subjects",[2]; safety set,(26.5%)
same,"AEs related to Study Agent, n (%)",[2]; safety set,9
same,"SAEs related to Study Agent, n (%)",[2]; safety set,0
same,"TEAEs resulting in Permanent Discontinuation of Study Agent, n (%)",[2]; safety set,0
same,"Adverse event: Pleural Effusion, % of participants","[2]; treatment-emergent, safety set",(6%)
same,"All TEAEs (subjects with 1 or more), % of subjects","[2]; treatment-emergent, safety set",(85.3%)
same,"All TESAEs (subjects with 1 or more serious adverse events), % of subjects","[2]; treatment-emergent, safety set",(23.5%)
same,"Serious adverse event: Infections, % of participants","[2]; treatment-emergent, safety set",(12%)
same,"Serious adverse event: Infections, n (%)","[2]; treatment-emergent, safety set",4
same,"Serious adverse event: Pleural Effusion, % of participants","[2]; treatment-emergent, safety set",(6%)
same,"Serious adverse event: Pleural Effusion, n (%)","[2]; treatment-emergent, safety set",2
same,"Serious adverse event: Respiratory, Thoracic, and Mediastinal Disorders, % of participants","[2]; treatment-emergent, safety set",(9%)
same,"Serious adverse event: Respiratory, Thoracic, and Mediastinal Disorders, n (%)","[2]; treatment-emergent, safety set",3
same,"TEAE: Gastrointestinal Disorders, % of subjects","[2]; treatment-emergent, safety set",(26.5%)
same,"TEAE: Gastrointestinal Disorders, n (%)","[2]; treatment-emergent, safety set",9
same,"TEAE: General Disorders and Administration Site Conditions, % of subjects","[2]; treatment-emergent, safety set",(23.5%)
same,"TEAE: General Disorders and Administration Site Conditions, n (%)","[2]; treatment-emergent, safety set",8
same,"TEAE: Infections and infestations, % of subjects","[2]; treatment-emergent, safety set",(64.7%)
same,"TEAE: Injury, Poisoning, and Procedural Complications, % of subjects","[2]; treatment-emergent, safety set",(29.4%)
same,"TEAE: Injury, Poisoning, and Procedural Complications, n (%)","[2]; treatment-emergent, safety set",10
same,"TEAE: Respiratory, Thoracic, and Mediastinal Disorders, % of subjects","[2]; treatment-emergent, safety set",(26.5%)
same,"TEAE: Respiratory, Thoracic, and Mediastinal Disorders, n (%)","[2]; treatment-emergent, safety set",9
same,"TEAE: Skin and Subcutaneous Tissue Disorders, % of subjects","[2]; treatment-emergent, safety set",(26.5%)
same,"TEAE: Skin and Subcutaneous Tissue Disorders, n (%)","[2]; treatment-emergent, safety set",9
same,"TEAE: Vascular Disorders, % of subjects","[2]; treatment-emergent, safety set",(2.9%)
same,"TEAE: Vascular Disorders, n (%)","[2]; treatment-emergent, safety set",1
same,"Adverse event: Pleural Effusion, n (%)",[2]; [4],2
same,"All TEAEs (subjects with 1 or more), % of subjects",[2]; [4],(85%)
same,"All TEAEs (subjects with 1 or more), n (%)",[2]; [4],29
same,"All TESAEs (subjects with 1 or more serious adverse events), % of subjects",[2]; [4],(24%)
same,"All TESAEs (subjects with 1 or more serious adverse events), n (%)",[2]; [4],8
same,"TEAE: Gastrointestinal Disorders, % of subjects",[2]; [4],(26%)
same,"TEAE: General Disorders and Administration Site Conditions, % of subjects",[2]; [4],(24%)
same,"TEAE: Infections and infestations, % of subjects",[2]; [4],(65%)
same,"TEAE: Infections and infestations, n (%)",[2]; [4],22
same,"TEAE: Injury, Poisoning, and Procedural Complications, % of subjects",[2]; [4],(29%)
same,"TEAE: Respiratory, Thoracic, and Mediastinal Disorders, % of subjects",[2]; [4],(26%)
same,"TEAE: Skin and Subcutaneous Tissue Disorders, % of subjects",[2]; [4],(26%)
same,"TEAE: Vascular Disorders, % of subjects",[2]; [4],(3%)
same,"SAEs, % of subjects",[2]; [5],(23.5%)
same,"SAEs, No. of subjects with event",[2]; [5],8/34
same,"CRNM bleeding: GI-Lower, % of subjects",[3],(2.9%)
same,"CRNM bleeding: Gastrointestinal, % of subjects",[3],(2.9%)
same,"CRNM bleeding: Gastrointestinal, subjects n (%)",[3],1
same,"CRNM bleeding: Gingival, subjects n (%)",[3],0
same,"CRNM bleeding: Hematoma, % of subjects",[3],(2.9%)
same,"CRNM bleeding: Skin, % of subjects",[3],(2.9%)
same,"CRNM bleeding: Subconjunctival, % of subjects",[3],(2.9%)
same,"Clinically relevant non-major (CRNM) bleeding, % of subjects",[3],(8.8%)
same,"Clinically relevant non-major (CRNM) bleeding, No. of subjects with event",[3],3/34
same,"Clinically relevant non-major bleeding, % of subjects",[3],(8.8%)
same,"Fall in hemoglobin ≥2 g/dL or transfusion of the equivalent ≥2 units of packed red blood cell or whole blood in adults, No. of subjects with event",[3],0
same,"Fatal or critical site bleeding, No. of subjects with event",[3],0
same,"Major and clinically relevant non-major bleeding, % of subjects",[3],(8.8%)
same,"Major and clinically relevant non-major bleeding, No. of subjects with event",[3],3/34
same,"Major bleeding (primary safety outcome), No. of subjects with event",[3],0
same,"Subjects with 1 or more on-treatment bleeding events, % of subjects",[3],(41.2%)
same,"Trivial (minimal) bleeding, % of subjects",[3],(35.3%)
same,"Trivial (minimal) bleeding, No. of subjects with event",[3],12/34
same,"Trivial bleeding, % of subjects",[3],(35.3%)
same,"Trivial bleeding: Epistaxis, % of subjects",[3],(8.8%)
same,"Trivial bleeding: Epistaxis, subjects n (%)",[3],3
same,"Trivial bleeding: GI-Lower, % of subjects",[3],(2.9%)
same,"Trivial bleeding: GI-Lower, subjects n (%)",[3],1
same,"Trivial bleeding: GI-Upper, subjects n (%)",[3],0
same,"Trivial bleeding: Gastrointestinal, % of subjects",[3],(2.9%)
same,"Trivial bleeding: Gastrointestinal, subjects n (%)",[3],1
same,"Trivial bleeding: Gingival, % of subjects",[3],(2.9%)
same,"Trivial bleeding: Gingival, subjects n (%)",[3],1
same,"Trivial bleeding: Hematoma, % of subjects",[3],(5.9%)
same,"Trivial bleeding: Hematoma, subjects n (%)",[3],2
same,"Trivial bleeding: Skin, % of subjects",[3],(23.5%)
same,"Trivial bleeding: Vascular Access Site, subjects n (%)",[3],0
